Experimental data published in PubChem BioAssay AID330 (DTP/NCI, 2004).
Where “and” joins values, the source holds several entries; their conditions need not be identical. Equal values may be shown once. Inconclusive results and toxic doses are left out. The calls were made as follows: active = survival T/C of 150% or more; inactive = T/C below 125% in these data.

System: P388 leukemia ip, CD2F1 mice, survival T/C
Test: NCI In Vivo Anticancer Drug Screen. Data for tumor model P388 Leukemia (intraperitoneal) in CD2F1 (CDF1) mice
Settings: endpoint: median survival time, higher = longer survival
Method in brief: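 Mice carrying the transplanted tumor received test compound or vehicle. Survival was recorded in each group, and the value is the treated-group measurement divided by that of the vehicle-treated control group.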

[1] = dose: 25.0 mg/kg/injection, schedule: Q01DX009 (ip), vehicle: saline
[2] = dose: 50.0 mg/kg/injection, schedule: Q01DX009 (ip), vehicle: saline with Tween-80
[3] = dose: 50.0 mg/kg/injection, schedule: Q01DX009 (ip), vehicle: saline
[4] = dose: 100.0 mg/kg/injection, schedule: Q01DX009 (ip), vehicle: saline with Tween-80
[5] = dose: 60.0 mg/kg/injection, schedule: Q01DX005 (ip), vehicle: saline with Tween-80
[6] = dose: 120.0 mg/kg/injection, schedule: Q01DX005 (ip), vehicle: saline with Tween-80
[7] = dose: 240.0 mg/kg/injection, schedule: Q01DX005 (ip), vehicle: saline with Tween-80
[8] = dose: 25.0 mg/kg/injection, schedule: Q01DX005 (ip), vehicle: Klucel (hydroxypropylcellulose) (HPC)
[9] = dose: 50.0 mg/kg/injection, schedule: Q01DX005 (ip), vehicle: Klucel (hydroxypropylcellulose) (HPC)
[10] = dose: 50.0 mg/kg/injection, schedule: Q01DX005 (ip), vehicle: saline with Tween-80
[11] = dose: 100.0 mg/kg/injection, schedule: Q01DX005 (ip), vehicle: saline with Tween-80
[12] = dose: 200.0 mg/kg/injection, schedule: Q01DX005 (ip), vehicle: saline with Tween-80
[13] = dose: 100.0 mg/kg/injection, schedule: Q01DX001 (ip), vehicle: Klucel (hydroxypropylcellulose) (HPC)
[14] = dose: 200.0 mg/kg/injection, schedule: Q01DX009 (ip), vehicle: saline
[15] = dose: 200.0 mg/kg/injection, schedule: Q01DX009 (ip), vehicle: saline with Tween-80
[16] = dose: 60.0 mg/kg/injection, schedule: Q01DX005 (ip), vehicle: Klucel (hydroxypropylcellulose) (HPC)
[17] = dose: 120.0 mg/kg/injection, schedule: Q01DX005 (ip), vehicle: Klucel (hydroxypropylcellulose) (HPC)
[18] = dose: 240.0 mg/kg/injection, schedule: Q01DX005 (ip), vehicle: Klucel (hydroxypropylcellulose) (HPC)

Measured: T/C

c1cc[c]([Sn]([S]C23CC4CC(CC(C4)C2)C3)([c]2ccccc2)[c]2ccccc2)cc1
inactive: dose: 100.0 mg/kg/injection, schedule: Q04DX003 (ip), vehicle: suspension in saline 94 % of control | dose: 200.0 mg/kg/injection, schedule: Q04DX003 (ip), vehicle: suspension in saline 98 % of control | dose: 400.0 mg/kg/injection, schedule: Q04DX003 (ip), vehicle: suspension in saline 93 % of control

O=C(Nc1ccc(Cl)c(Cl)c1)Sc1ccc(O)cc1
inactive: dose: 12.5 mg/kg/injection, schedule: Q01DX009 (ip), vehicle: saline 91 % of control | [1] 91 % of control | [2] 96 % of control | [3] 117 % of control | [4] 91 % of control

O=C(O)c1cccc2cccc(-c3c4ccc(=O)cc-4oc4cc(O)ccc34)c12
inactive: [5] 101 % of control | [6] 100 % of control | [7] 98 % of control

CN(C)c1ccsc(=S)c1
inactive: dose: 6.25 mg/kg/injection, schedule: Q01DX005 (ip), vehicle: Klucel (hydroxypropylcellulose) (HPC) 102 % of control | dose: 12.5 mg/kg/injection, schedule: Q01DX005 (ip), vehicle: Klucel (hydroxypropylcellulose) (HPC) 101 % of control | [8] 105 % of control | [9] 98 % of control

CN(C)Cc1cc(C(=O)c2ccccc2)c(O)cc1O
inactive: dose: 25.0 mg/kg/injection, schedule: Q01DX009 (ip), vehicle: Klucel (hydroxypropylcellulose) (HPC) 103 % of control | dose: 50.0 mg/kg/injection, schedule: Q01DX009 (ip), vehicle: Klucel (hydroxypropylcellulose) (HPC) 103 % of control

CS(=O)Cc1cc(-c2ccccc2)no1 (centres undefined)
inactive: [5] 99 % of control | [6] 104 % of control | [7] 97 % of control

COC(=O)c1ccc(Cl)cc1OC
inactive: dose: 12.5 mg/kg/injection, schedule: Q01DX009 (ip), vehicle: distilled water + Tween-80 101 % of control | dose: 25.0 mg/kg/injection, schedule: Q01DX009 (ip), vehicle: distilled water + Tween-80 99 % of control | dose: 50.0 mg/kg/injection, schedule: Q01DX009 (ip), vehicle: distilled water + Tween-80 99 % of control | dose: 100.0 mg/kg/injection, schedule: Q01DX009 (ip), vehicle: distilled water + Tween-80 101 % of control | dose: 200.0 mg/kg/injection, schedule: Q01DX009 (ip), vehicle: distilled water + Tween-80 101 % of control

O/N=C1/CCC/C(=N/O)C1
inactive: [10] 100 % of control | [11] 98 % of control | [12] 107 % of control

CS(=O)(=O)OC1COC(c2ccccc2)OC1C1OC(c2ccccc2)OCC1OS(C)(=O)=O (centres undefined)
inactive: [13] 92 % of control | dose: 200.0 mg/kg/injection, schedule: Q01DX001 (ip), vehicle: Klucel (hydroxypropylcellulose) (HPC) 101 % of control | dose: 400.0 mg/kg/injection, schedule: Q01DX001 (ip), vehicle: Klucel (hydroxypropylcellulose) (HPC) 99 % of control

O=[N+]([O-])c1ccc(/C=C/C(CCN2CCCCC2)=N\O)o1
inactive: [5] 104 % of control | [6] 104 % of control | [7] 100 % of control

O=C1C=CC2(C=C1)CCCCC2
inactive: dose: 50.0 mg/kg/injection, schedule: Q01DX001 (ip), vehicle: Klucel (hydroxypropylcellulose) (HPC) 91 % of control | [13] 101 % of control

COc1ccc(/C=N/NC(=O)C(=O)Nc2ccc(Cl)c([N+](=O)[O-])c2)cc1OC
inactive: [10] 93 % of control | [11] 92 % of control | [12] 103 % of control

CCCCCc1cc(O)cc2c1Oc1cc(O)cc(C(=O)CCCC)c1C(=O)O2
inactive: [10] 98 % of control | [11] 100 % of control | [12] 107 % of control

COC1CCC(NC(C)=O)C(C2CCCCC2)C1 (centres undefined)
inactive: [10] 99 % of control | [11] 94 % of control | [12] 91 % of control

CCCCSc1n[nH]c(C2CCC(=O)N2Cc2ccccc2)n1 (centres undefined)
inactive: [5] 100 % of control | [6] 93 % of control | [7] 91 % of control

CC(C)=NNc1nc(N(C)C)nc(N(C)C)n1
inactive: dose: 100.0 mg/kg/injection, schedule: Q04DX003 (ip), vehicle: saline with Tween-80 105 % of control | dose: 200.0 mg/kg/injection, schedule: Q04DX003 (ip), vehicle: saline with Tween-80 105 % of control | dose: 400.0 mg/kg/injection, schedule: Q04DX003 (ip), vehicle: saline with Tween-80 103 % of control

COc1ccc(NC(=O)C(Cl)Cl)ccc1=O
inactive: [2] 91 % of control

NNC(=O)C12CC3CC(CC(C3)C1)C2
inactive: [8] 105 % of control | [9] 105 % of control | dose: 100.0 mg/kg/injection, schedule: Q01DX005 (ip), vehicle: Klucel (hydroxypropylcellulose) (HPC) 102 % of control | dose: 200.0 mg/kg/injection, schedule: Q01DX005 (ip), vehicle: Klucel (hydroxypropylcellulose) (HPC) 112 % of control

Clc1ncnc2ccccc12
inactive: [10] 105 % of control | [11] 89 % of control

COc1cccc(-n2c(=S)[nH]c3ccccc3c2=O)c1
inactive: [10] 93 % of control | [11] 87 % of control | [12] 89 % of control

O=C(C[N+](=O)[O-])OCc1ccccc1
inactive: dose: 12.5 mg/kg/injection, schedule: Q01DX009 (ip), vehicle: other 101 % of control | dose: 25.0 mg/kg/injection, schedule: Q01DX009 (ip), vehicle: other 106 % of control | dose: 50.0 mg/kg/injection, schedule: Q01DX009 (ip), vehicle: other 113 % of control | dose: 100.0 mg/kg/injection, schedule: Q01DX009 (ip), vehicle: other 103 % of control

COc1ccc(Br)cc1C(Nc1nncs1)Nc1nncs1
inactive: dose: 30.0 mg/kg/injection, schedule: Q01DX005 (ip), vehicle: saline with Tween-80 93 % of control | [5] 87 % of control and 89 % of control | [6] 92 % of control | [7] 90 % of control

CCCCCCCCS(=O)(=O)NC
inactive: [1] 117 % of control | [3] 102 % of control | [14] 102 % of control

C[Si](C)(C)C1OC1[Si](C)(C)C (centres undefined)
inactive: dose: 50.0 mg/kg/injection, schedule: Q04DX002 (ip), vehicle: other 103 % of control | dose: 100.0 mg/kg/injection, schedule: Q04DX002 (ip), vehicle: other 105 % of control | dose: 200.0 mg/kg/injection, schedule: Q04DX002 (ip), vehicle: other 108 % of control

COc1ccc(NC(=O)N2CCOCC2)cc1
inactive: [3] 92 % of control | dose: 100.0 mg/kg/injection, schedule: Q01DX009 (ip), vehicle: saline 92 % of control | [14] 88 % of control

CSc1cccc(NC(=O)OC2CCCCCCCCCCC2)c1
inactive: [2] 89 % of control | [4] 89 % of control | [15] 92 % of control

O=C1NC(c2ccccc2)(c2ccccc2)C(=O)N1CN1CCc2ccccc2C1
inactive: [16] 90 % of control | [17] 91 % of control | [18] 90 % of control

O=P1(C(Cl)(Cl)Cl)NNP(=O)(C(Cl)(Cl)Cl)NN1 (centres undefined)
inactive: [16] 104 % of control | [17] 101 % of control | [18] 107 % of control

Cc1ccc(C(C)(C)C)cc1Br
inactive: dose: 100.0 mg/kg/injection, schedule: Q01DX001 (ip), vehicle: other 95 % of control | dose: 200.0 mg/kg/injection, schedule: Q01DX001 (ip), vehicle: other 100 % of control | dose: 400.0 mg/kg/injection, schedule: Q01DX001 (ip), vehicle: other 88 % of control

CC(C)Cn1c(Cl)c(C=O)c2ccccc21
inactive: dose: 100.0 mg/kg/injection, schedule: Q04DX002 (ip), vehicle: Klucel (hydroxypropylcellulose) (HPC) 101 % of control | dose: 200.0 mg/kg/injection, schedule: Q04DX002 (ip), vehicle: Klucel (hydroxypropylcellulose) (HPC) 97 % of control | dose: 400.0 mg/kg/injection, schedule: Q04DX002 (ip), vehicle: Klucel (hydroxypropylcellulose) (HPC) 90 % of control

O=C(NCCN1CCNCC1)c1ccc(Cl)cc1
inactive: [5] 97 % of control | [6] 92 % of control | [7] 93 % of control

COc1ccc(NC(=O)CCC(=O)O)cc1
inactive: [4] 95 % of control | [15] 95 % of control | dose: 400.0 mg/kg/injection, schedule: Q01DX009 (ip), vehicle: saline with Tween-80 91 % of control
